Values quoted from earlier work in patent US20020022041A1, “Composition and process for treating pollution” (priority 2000, published 2002).

Settings: non-toxic as defined by Section 313 Title III of SARA

| SMILES | Toxicity |
| --- | --- |
| CCCCOCCOCCO [2-, 2-(2-butoxyethoxy)ethanol] | Non toxic |
| CCCCCCCCCCCCOP(=O)(O)O [Lauryl Phosphate Soln, Lauryl Phosphate] | Non toxic |
| CCCCCCCC/C=C\CCCCCCCC(=O)O [Oleic Acid] | Non toxic |
